Key:
Estrogen receptor = target: T1, Estrogen receptor (Homo sapiens, UniProt P03372); experiment: Transcriptional agonist activity in Chinese hamster ovary cells expressing human Estrogen Receptor alpha; assay type: functional, cell-based
T1 sequence (P03372 whole entry): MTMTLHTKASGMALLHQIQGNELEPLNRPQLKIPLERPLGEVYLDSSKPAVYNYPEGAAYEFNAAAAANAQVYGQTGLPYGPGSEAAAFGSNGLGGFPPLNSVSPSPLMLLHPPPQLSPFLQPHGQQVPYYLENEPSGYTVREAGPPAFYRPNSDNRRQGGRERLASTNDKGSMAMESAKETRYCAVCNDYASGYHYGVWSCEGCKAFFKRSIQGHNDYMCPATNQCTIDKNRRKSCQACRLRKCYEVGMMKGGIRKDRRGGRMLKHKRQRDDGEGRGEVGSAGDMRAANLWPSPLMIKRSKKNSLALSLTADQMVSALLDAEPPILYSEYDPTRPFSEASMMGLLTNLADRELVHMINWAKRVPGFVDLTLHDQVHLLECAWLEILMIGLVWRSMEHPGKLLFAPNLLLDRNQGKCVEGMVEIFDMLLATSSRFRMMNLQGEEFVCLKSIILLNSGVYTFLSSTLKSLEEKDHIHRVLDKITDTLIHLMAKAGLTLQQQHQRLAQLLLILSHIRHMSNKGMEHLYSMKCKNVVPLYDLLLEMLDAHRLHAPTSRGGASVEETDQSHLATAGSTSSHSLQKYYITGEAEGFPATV

[1] = target: T2, Estrogen receptor (Homo sapiens) (UniProt P03372); experiment: Percent change in 17-beta-estradiol mediated transcriptional activation in CHO cells expressing human estrogen receptor alpha at 10e-6 M; assay type: functional, cell-based
T2 sequence (whole entry): T1 sequence (P03372 whole entry)

[2] = target: T2, Estrogen receptor (Homo sapiens); experiment: Relative Binding Affinity for human estrogen receptor alpha expressed in CHO cells compared to Diethylstilbestrol Dimethyl Ether; assay type: cell-based
[3] = target: T2, Estrogen receptor (Homo sapiens); experiment: Relative binding affinity for human estrogen receptor alpha expressed in CHO cells compared to Diethylstilbestrol Methyl Ether; assay type: cell-based
[4] = target: T2, Estrogen receptor (Homo sapiens); details: CHO

SMILES	EC50 (Estrogen receptor) [nM]	also measured
Oc1ccc(-c2ccc(-c3ccc(O)cc3)cc2)cc1	1200	–
CC1C(=O)c2cc(O)ccc2OC1c1ccc(O)cc1 (configuration not stated)	4	–
Oc1ccc(-c2cccc(-c3ccc(O)cc3)c2)cc1	800	–
Oc1ccc(-c2cc(-c3ccc(O)cc3)cc(-c3ccc(O)cc3)c2)cc1	80	–
COc1ccc(C2Oc3ccc(O)cc3C(=O)C2C)cc1 (configuration not stated)	> 10000	HTS data [1]: 67
CC/C(=C(/CC)c1ccc(OC)cc1)c1ccc(OC)cc1	–	RBA data [2]: -1.25
CC/C(=C(/CC)c1ccc(OC)cc1)c1ccc(O)cc1	–	RBA data [3]: 1.31
COc1ccc2c(c1)CC[C@@H]1[C@@H]2CC[C@]2(C)[C@@H](OC)CC[C@@H]12	–	HTS data [4]: 0
COc1ccc2c(c1)CC[C@@H]1[C@@H]2CC[C@]2(C)[C@@H](O)CC[C@@H]12	–	HTS data [4]: 76
COc1ccc(-c2cccc(-c3ccc(OC)cc3)c2)cc1	> 10000	HTS data [1]: 7

— ChEMBL document CHEMBL1145862, “Identification of "latent hits" in compound screening collections” (J Med Chem, 2003)
